Bounds are passed on as bounds.

The test has as its target T1, purified human HDAC6 (Homo sapiens, UniProt Q9UBN7).
T1 construct: purchased BPS Bioscience 5006
T1 sequence (Q9UBN7 1-1215): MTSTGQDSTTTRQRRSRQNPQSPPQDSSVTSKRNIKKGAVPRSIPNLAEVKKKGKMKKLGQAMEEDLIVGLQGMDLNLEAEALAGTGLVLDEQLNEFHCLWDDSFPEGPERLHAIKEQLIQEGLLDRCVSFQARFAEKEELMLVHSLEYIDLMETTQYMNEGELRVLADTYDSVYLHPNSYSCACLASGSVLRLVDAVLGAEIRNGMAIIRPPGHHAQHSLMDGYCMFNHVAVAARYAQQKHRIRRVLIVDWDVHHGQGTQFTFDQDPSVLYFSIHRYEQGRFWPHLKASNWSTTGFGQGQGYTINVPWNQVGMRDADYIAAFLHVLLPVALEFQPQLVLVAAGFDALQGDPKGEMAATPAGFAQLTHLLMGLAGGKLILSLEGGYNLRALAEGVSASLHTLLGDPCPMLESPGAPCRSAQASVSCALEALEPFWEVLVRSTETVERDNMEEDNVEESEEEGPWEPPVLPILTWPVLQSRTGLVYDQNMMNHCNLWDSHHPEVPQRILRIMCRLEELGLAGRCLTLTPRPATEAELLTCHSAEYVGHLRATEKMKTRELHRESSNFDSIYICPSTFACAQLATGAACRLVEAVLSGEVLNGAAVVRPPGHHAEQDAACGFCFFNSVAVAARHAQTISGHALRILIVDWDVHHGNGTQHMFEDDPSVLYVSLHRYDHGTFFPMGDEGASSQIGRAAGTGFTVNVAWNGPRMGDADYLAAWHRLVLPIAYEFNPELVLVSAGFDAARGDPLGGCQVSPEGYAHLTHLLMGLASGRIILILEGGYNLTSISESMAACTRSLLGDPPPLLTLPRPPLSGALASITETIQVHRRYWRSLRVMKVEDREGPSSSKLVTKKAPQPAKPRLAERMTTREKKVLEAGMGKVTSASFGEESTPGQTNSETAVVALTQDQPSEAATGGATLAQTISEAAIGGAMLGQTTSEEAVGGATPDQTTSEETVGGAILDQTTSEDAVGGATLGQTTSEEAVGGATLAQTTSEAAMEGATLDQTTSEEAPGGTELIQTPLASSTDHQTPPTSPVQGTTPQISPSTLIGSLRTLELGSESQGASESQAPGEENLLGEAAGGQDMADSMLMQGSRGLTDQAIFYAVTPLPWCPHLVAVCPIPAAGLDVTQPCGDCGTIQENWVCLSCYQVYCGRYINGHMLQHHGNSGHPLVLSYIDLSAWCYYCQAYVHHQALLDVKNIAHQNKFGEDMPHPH
The experiment in a line: HDAC6 Enzyme Assay. It is filed as biochemical. The essentials: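 Purified human HDAC6 incubated 1 h at 30 °C with Ac-Arg-Gly-Lys(Ac)-AMC peptide and compound; reaction stopped with trichostatin A, then trypsin releases AMC, read by fluorescence (Ex 340/Em 460 nm). IC50 from concentration-response curves relative to DMSO controls.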
For orientation: IC50 means the midpoint of a concentration-inhibition curve. Regarding `CCCNC(=O)N1CCc2cc(C(=O)NO)ccc2C1` [Compound 97, N^6-hydroxy-N^2-propyl-3,4-dihydroisoquinoline-2,6(1H)-dicarboxamide], the IC50 is 50 to 100 nM.

Turning to `CC(C)(C)c1ccc(C(=O)N2CCCc3cc(C(=O)NO)ccc3C2)cc1` [Compound 238, 2-(4-tert-butylbenzoyl)-N-hydroxy-2,3,4,5-tetrahydro-1H-2-benzazepine-7-carboxamide], the IC50 lay in the range of 100 to 500 nM.

`CC(C)(C)C(=O)N1CCc2ccc(C(=O)NO)cc2CC1` [Compound 85, 3-(2,2-dimethylpropanoyl)-N-hydroxy-2,3,4,5-tetrahydro-1H-3-benzazepine-7-carboxamide] displayed an IC50 of 100 to 500 nM.

Turning to `CC(C)c1ccc(S(=O)(=O)N2CCc3cc(C(=O)NO)ccc3C2)cc1` [Compound 42, N-hydroxy-2-[(4-isopropylphenyl)sulfonyl]-1,2,3,4-tetrahydroisoquinoline-6-carboxamide], the IC50 fell in the range of 100 to 500 nM.

For the molecule `O=C(NO)c1ccc2c(c1)CCCN(C(=O)c1cccs1)C2` [Compound 260, N-hydroxy-2-(2-thienylcarbonyl)-2,3,4,5-tetrahydro-1H-2-benzazepine-7-carboxamide], the IC50 is 100 to 500 nM.

On to `Cc1cccc(C)c1NC(=O)CN1CCc2cc(C(=O)NO)ccc2C1` [Compound 116, 2-{2-[(2,6-dimethylphenyl)amino]-2-oxoethyl}-N-hydroxy-1,2,3,4-tetrahydroisoquinoline-6-carboxamide], for which the IC50 lay within 50 to 100 nM.

On to `O=C(NO)c1ccc2c(c1)CCCN(C(=O)C13CC4CC(CC(C4)C1)C3)C2` [Compound 232, 2-(1-adamantylcarbonyl)-N-hydroxy-2,3,4,5-tetrahydro-1H-2-benzazepine-7-carboxamide], for which the IC50 was 100 to 500 nM.

As for `O=C(NO)c1ccc2c(c1)CCN(C(=O)C13CC4CC(CC(O)(C4)C1)C3)C2` [Compound 248, N-hydroxy-2-[(3-hydroxy-1-adamantyl)carbonyl]-1,2,3,4-tetrahydroisoquinoline-6-carboxamide], the 50% inhibitory concentration (IC50) is less than 50 nM.

`O=C(NO)c1ccc2c(c1)CCN(C(=O)C1CC=CCC1)C2` (stereo not drawn) [Compound 26, 2-(cyclohex-3-en-1-ylcarbonyl)-N-hydroxy-1,2,3,4-tetrahydroisoquinoline-6-carboxamide] came in with an IC50 of 100 to 500 nM.

Consider `COc1cccc2cc(C(=O)N3CCCc4cc(C(=O)NO)ccc4C3)oc12` [Compound 242, N-hydroxy-2-[(7-methoxy-1-benzofuran-2-yl)carbonyl]-2,3,4,5-tetrahydro-1H-2-benzazepine-7-carboxamide], for which the IC50 is less than 50 nM.

Take `O=C(NO)c1ccc2c(c1)CCN(c1nc(-c3cccc(Cl)c3)cs1)C2` [Compound 77, 2-[4-(3-chlorophenyl)-1,3-thiazol-2-yl]-N-hydroxy-1,2,3,4-tetrahydroisoquinoline-6-carboxamide]: the IC50 is less than 50 nM.

For `O=C(NO)c1ccc2c(c1)CCN(Cc1nccn1Cc1ccccc1)C2` [Compound 74, 2-[(1-benzyl-1H-imidazol-2-yl)methyl]-N-hydroxy-1,2,3,4-tetrahydroisoquinoline-6-carboxamide], the IC50 is greater than 500 nM.

On to `O=C(NO)c1ccc2c(c1)CCN(C(=O)CCn1ccc3ccccc31)C2` [Compound 13, N-hydroxy-2-[3-(1H-indol-1-yl)propanoyl]-1,2,3,4-tetrahydroisoquinoline-6-carboxamide], for which the IC50 was greater than 500 nM.

Molecule `O=C(NO)c1ccc2c(c1)CCN(CCc1cccc3ccccc13)C2` [Compound 58, N-hydroxy-2-[2-(1-naphthyl)ethyl]-1,2,3,4-tetrahydroisoquinoline-6-carboxamide] yielded an IC50 of 50 to 100 nM.

`O=C(NO)c1ccc2c(c1)CCCN(C(=O)c1ccc(-c3ccccc3)cc1)C2` [Compound 244, 2-(biphenyl-4-ylcarbonyl)-N-hydroxy-2,3,4,5-tetrahydro-1H-2-benzazepine-7-carboxamide] showed an IC50 of 100 to 500 nM.

On to `CCc1cccc(C)c1NC(=O)N1CCc2cc(C(=O)NO)ccc2C1` [Compound 94, N^2-(2-ethyl-6-methylphenyl)-N^6-hydroxy-3,4-dihydroisoquinoline-2,6(1H)-dicarboxamide], for which the IC50 was less than 50 nM.

The molecule `O=C(NO)c1ccc2c(c1)CCN(C(=O)c1cccc3ccccc13)C2` [Compound 12, N-hydroxy-2-(1-naphthoyl)-1,2,3,4-tetrahydroisoquinoline-6-carboxamide] showed an IC50 of 50 to 100 nM.

In turn, `O=C(NO)c1ccc2c(c1)CCN(C(=O)Nc1ccc(-c3ccccc3)s1)C2` [Compound 95, N^6-hydroxy-N^2-(5-phenyl-2-thienyl)-3,4-dihydroisoquinoline-2,6(1H)-dicarboxamide] came in with an IC50 of less than 50 nM.

For the origin of these results see US9096518B2, “Substituted hydroxamic acids and uses thereof” (Millennium Pharmaceuticals, Inc., priority 2009, dated 2015).
